Test results from US6403125B1, “Utilization of an extract of a plant of the Cecropia genus” (Cognis France (Societe Anonyme), priority 1998, dated 2002).

Tested on: human adipocytes
Assay: Lipolysis activation on human adipocytes in vitro (glycerin release)
Assay type: cell-based
Settings: 90 minutes at 37° C.
From the text: I. Evidence of the Lipolysis Activation Effect on Human Adipocytes in “in vitro” Survival The test used to emphasise the lipolysis activation of human adipocytes in the presence of Cecropia extracts, which are the subject of the present invention, is described below. Lipolysis is removal of triglycerides (or TG) stored in the adipocytes by a hormone-sensitive enzyme, triglyceride lipase (or TGL) which splits the TG into free fatty acids and glycerin which are removed in the blood circulation. The fatty acids can then be absorbed by the muscle cells to produce energy. 1) Principle of the in vitro Test Activation of lipolysis is evaluated by spectrophotometric metering of the rate of glycerin salted out by adipocytes, incubated “in vitro” with the substance to be tested present. The adipocytes are isolated by enzymatic digestion of subcutaneous human tissue by the so-called Rodbell method (see M. Rodbell: “Metabolism of isolated fat cells”. The journal of biological chemistry, Vol. 239, No. 2, pages 375 to 380, 1964). […] 3) Quantisation of the Lipolysis The rate of salted-out glycerin is quantified by spectrophotometry in the medium of the material which floats on the surface by the method described by C. […] The results are expressed as mean values of the activation percentage relative to a proof mass batch (without Cecropia extract).

Structure (SMILES)	% activation of the lipolysis relative to the proof mass without extract (mean) (0.1 μM)	% activation of the lipolysis relative to the proof mass without extract (mean) (1 mM)
CC(C)NCC(O)c1ccc(O)c(O)c1 (centres unmarked) [Isoprenaline, isoprenaline]	+ 45%	
Cn1c(=O)c2[nH]cnc2n(C)c1=O [Theophylline, theophylline]		+ 70%
